Each block holds one molecule with its values, some of them ahead of it.
Assays:
Type in all cases: in vivo, chicken
chickens [1] = experiment: Serum cholesterol, apolipoproteins, triglycerides and glucose in chickens fed supplemented diets; conditions: 4 weeks
Description: All assays conducted on chicken or swine serum were done following the protocols described in A. A. Qureshi et al., "Lowering Of Serum Cholesterol In Hypercholesterolemic Humans By Tocotrienols" (Palmvitee), Am. J. Clin. Nutr., 53, pp. 1021S-26S (1991). All enzymatic assays were done following the protocols described in A. A. Qureshi et al., "Effects of Cereals and Culture Filtrate of Trichoderma viride on Lipid Metabolism of Swine", Lipids, 17, pp. 924 (1982). Plasma insulin, glucagon and TNF levels were measured using radioinnumoassay kits from Ventrex Laboratories, Inc. (Portland, Me.), ICN Biomedicals, Inc. (Costa Mesa, Calif.) and Genzyme Corp. (Cambridge, Mass.), respectively. […]
Each group of 6 chickens (6-week old female while leghorn) was administered the chick mash diet described in Example 5, supplemented with one of three different amounts of waxes (sterols), 50 ppm of TRF (prepared as in Example 2) or 5% equivalent of the methanol insoluble fraction Louisiana rice bran oil. […] The birds were fasted for a period of 14 hours prior to sacrifice (at 0800 hours). […]

HMG-CoA reductase = biological target: T1, HMG-CoA reductase (Homo sapiens, UniProt P04035); experiment: Hepatic HMG-CoA reductase activity in chickens fed supplemented diets; conditions: 4 weeks
T1 construct: hepatocytes isolated from livers of 8-week old female chickens; endogenous in cells; host or cells: primary chicken hepatocytes
T1 sequence (P04035 1-888): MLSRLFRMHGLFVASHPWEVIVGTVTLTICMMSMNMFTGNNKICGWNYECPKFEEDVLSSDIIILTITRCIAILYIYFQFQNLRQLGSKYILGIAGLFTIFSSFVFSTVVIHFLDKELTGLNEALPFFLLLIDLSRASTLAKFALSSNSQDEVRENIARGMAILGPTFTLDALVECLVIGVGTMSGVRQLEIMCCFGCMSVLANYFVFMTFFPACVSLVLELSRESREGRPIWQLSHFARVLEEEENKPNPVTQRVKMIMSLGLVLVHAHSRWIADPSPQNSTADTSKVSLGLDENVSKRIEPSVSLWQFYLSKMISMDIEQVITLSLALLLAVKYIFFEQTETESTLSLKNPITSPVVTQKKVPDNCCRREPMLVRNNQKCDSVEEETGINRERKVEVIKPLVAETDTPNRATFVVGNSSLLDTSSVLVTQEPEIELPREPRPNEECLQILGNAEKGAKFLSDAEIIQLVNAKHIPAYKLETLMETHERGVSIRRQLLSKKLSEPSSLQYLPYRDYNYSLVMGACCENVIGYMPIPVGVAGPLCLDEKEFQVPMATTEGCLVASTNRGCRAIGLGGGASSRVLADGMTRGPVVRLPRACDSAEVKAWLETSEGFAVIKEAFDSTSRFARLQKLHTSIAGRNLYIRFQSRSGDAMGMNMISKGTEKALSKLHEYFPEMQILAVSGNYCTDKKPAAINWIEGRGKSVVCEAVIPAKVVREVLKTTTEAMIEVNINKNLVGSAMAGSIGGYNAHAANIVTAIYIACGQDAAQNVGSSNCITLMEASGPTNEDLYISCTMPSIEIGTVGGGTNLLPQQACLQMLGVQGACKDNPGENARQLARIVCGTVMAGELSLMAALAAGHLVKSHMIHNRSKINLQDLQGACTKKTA
Description: (§1) This example measured the effects of the TRF and its components on the hepatic enzymatic activity of HMG-CoA reductase and cholesterol 7α-hydroxylase. […] The amount of feed consumed ranged from 11.19-11.60 g per chicken and the feeding period was 4 weeks. The birds were fasted for a period of 36 hours and refed for 48 hours prior to sacrifice (at 0800 hours).

[2] = system: cholesterol 7α-hydroxylase; experiment: Hepatic cholesterol 7α-hydroxylase activity in chickens fed supplemented diets; conditions: 4 weeks
Description: as §1

chickens [3] = experiment: Plasma thromboxane B2 and platelet factor 4 in chickens fed supplemented diets; conditions: 4 weeks
Description: We next measured the effects of TRF and its components on serum levels of apolipoprotein (a)1, apolipoprotein B, triglycerides and glucose and the plasma levels of thromboxane B2 and platelet factor 4.

chickens [4] = experiment: Antibody titers to sheep red blood cells in chickens; conditions: 4 weeks, sheep red blood cells i.p.

HMG-CoA Reductase, percentage of control (HMG-CoA reductase; control diet + 50 ppm): 75.83%
Compound: CC(C)=CCC/C(C)=C/CC/C(C)=C/CCC1(C)CCc2cc(O)cc(C)c2O1 (stereo not shown) [δ-T3, δ-tocotrienol]
APO A1, percentage of control (chickens [1]; control diet + 50 ppm): 99.22%
APO A1 in serum (chickens [1]; control diet + 50 ppm): 139.30 mg/100 ml
APO B in serum (chickens [1]; control diet + 50 ppm): 27.30 mg/100 ml
APO B, percentage of control (chickens [1]; control diet + 50 ppm): 82.48%
DL-Cholesterol/Total Cholesterol (chickens [1]; control diet + 50 ppm): 0.65
DL-Cholesterol/Total Cholesterol, percentage of control (chickens [1]; control diet + 50 ppm): 111.30%
Glucose in serum (chickens [1]; control diet + 50 ppm): 205.30 mg/100 ml
Glucose, percentage of control (chickens [1]; control diet + 50 ppm): 91.53%
HDL-Cholesterol in serum (chickens [1]; control diet + 50 ppm): 77.78 ± 0.97 mg/dL
HDL-Cholesterol, percentage of control (chickens [1]; control diet + 50 ppm): 93.08%
HDL-Cholesterol/LDL-Cholesterol (chickens [1]; control diet + 50 ppm): 2.15
HDL-Cholesterol/LDL-Cholesterol, percentage of control (chickens [1]; control diet + 50 ppm): 141.80%
LDL-Cholesterol in serum (chickens [1]; control diet + 50 ppm): 36.14 ± 0.97 mg/dL
LDL-Cholesterol, percentage of control (chickens [1]; control diet + 50 ppm): 65.64%
Total Cholesterol in serum (chickens [1]; control diet + 50 ppm): 119.40 ± 1.41 mg/dL
Total Cholesterol, percentage of control (chickens [1]; control diet + 50 ppm): 83.63%
Triglycerides in serum (chickens [1]; control diet + 50 ppm): 60.50 mg/100 ml
Triglycerides, percentage of control (chickens [1]; control diet + 50 ppm): 81.72%
Cholesterol 7α-Hydroxylase, percentage of control ([2]; control diet + 50 ppm): 107.44%
Cholesterol 7α-hydroxylase ([2]; control diet + 50 ppm): 10.98 nmol/min/mg
Platelet Factor 4 (chickens [3]; control diet + 50 ppm): 8.23 ng/mL
Platelet Factor 4, percentage of control (chickens [3]; control diet + 50 ppm): 62.87%
Thromboxane B2 (chickens [3]; control diet + 50 ppm): 18.65 pg/mL
Thromboxane B2, percentage of control (chickens [3]; control diet + 50 ppm): 72.17%
IgG antibody titers in serum (chickens [4]; control diet + 50 ppm): 1.00 Log 2
IgM antibody titers in serum (chickens [4]; control diet + 50 ppm): 8.25 ± 1.96 Log 2
Total Ab titers in serum (chickens [4]; control diet + 50 ppm): 8.67 ± 1.78 Log 2

HMG-CoA Reductase, percentage of control (HMG-CoA reductase; control diet + 100 ppm): 87.65%
Compound: CC(C)=CCC/C(C)=C/CO [Geraniol]
increase in the HDL-/LDL-cholesterol ratio (chickens [1]; 100 ppm in diet): ≤ 31.5%
reduction of serum cholesterol (chickens [1]; 100 ppm in diet): 14%
APO A1, percentage of control (chickens [1]; control diet + 100 ppm): 98.58%
APO A1 in serum (chickens [1]; control diet + 100 ppm): 138.40 mg/100 ml
APO B in serum (chickens [1]; control diet + 100 ppm): 29.20 mg/100 ml
APO B, percentage of control (chickens [1]; control diet + 100 ppm): 88.22%
DL-Cholesterol/Total Cholesterol (chickens [1]; control diet + 100 ppm): 0.65
DL-Cholesterol/Total Cholesterol, percentage of control (chickens [1]; control diet + 100 ppm): 110.10%
Glucose in serum (chickens [1]; control diet + 100 ppm): 227.60 mg/100 ml
Glucose, percentage of control (chickens [1]; control diet + 100 ppm): 101.47%
HDL-Cholesterol in serum (chickens [1]; control diet + 100 ppm): 82.28 ± 1.06 mg/dL
HDL-Cholesterol, percentage of control (chickens [1]; control diet + 100 ppm): 98.35%
HDL-Cholesterol/LDL-Cholesterol (chickens [1]; control diet + 100 ppm): 2.00
HDL-Cholesterol/LDL-Cholesterol, percentage of control (chickens [1]; control diet + 100 ppm): 131.50%
LDL-Cholesterol in serum (chickens [1]; control diet + 100 ppm): 41.07 ± 1.13 mg/dL
LDL-Cholesterol, percentage of control (chickens [1]; control diet + 100 ppm): 96.30%
Total Cholesterol in serum (chickens [1]; control diet + 100 ppm): 122.53 ± 1.37 mg/dL
Total Cholesterol, percentage of control (chickens [1]; control diet + 100 ppm): 85.82%
Triglycerides in serum (chickens [1]; control diet + 100 ppm): 71.29 mg/100 ml
Triglycerides, percentage of control (chickens [1]; control diet + 100 ppm): 96.30%
Cholesterol 7α-Hydroxylase, percentage of control ([2]; control diet + 100 ppm): 100.59%
Cholesterol 7α-hydroxylase ([2]; control diet + 100 ppm): 10.28 nmol/min/mg
Platelet Factor 4 (chickens [3]; control diet + 100 ppm): 12.38 ng/mL
Platelet Factor 4, percentage of control (chickens [3]; control diet + 100 ppm): 94.57%
Thromboxane B2 (chickens [3]; control diet + 100 ppm): 25.46 pg/mL
Thromboxane B2, percentage of control (chickens [3]; control diet + 100 ppm): 98.53%
IgG antibody titers in serum (chickens [4]; control diet + 100 ppm): 1.00 ± 0.00 Log 2
IgM antibody titers in serum (chickens [4]; control diet + 100 ppm): 5.42 Log 2
Total Ab titers in serum (chickens [4]; control diet + 100 ppm): 5.60 ± 2.11 Log 2

Source: patent US6239171A, “Tocotrienols and tocotrienol-like compounds and methods for their use” (Lipogenics, Inc., priority 1998, dated 2001)
